≈ marks a conversion by molar mass, not a printed value. Read-outs that look alike come from different tables or passages of the source. Positions of bridges follow the written chain, without caps; N, C: chain ends. Residues, ends and D or L forms follow the SMILES beside them.
Key:
[1] = system: Klebsiella pneumoniae (ATCC BAA-1705); conditions: ATCC BAA-1705
[2] = system: Escherichia coli (ATCC 25922); conditions: ATCC 25922
[3] = system: Methicillin-resistant Staphylococcus aureus MRSA (ATCC BAA-1556); conditions: ATCC BAA-1556
[4] = system: Pseudomonas aeruginosa (ATCC 27883); conditions: ATCC 27883
[5] = system: Methicillin-resistant Staphylococcus aureus MRSA (ATCC BAA-1556); type: cell-based
Method: (§1) All bacteria pathogens tested clinically reported multi-drug resistant strains. The antibacterial activity was tested against Gram-negative strains namely; Pseudomonas aeruginosa (PSA), Klebsiella pneumoniae (KPC), Escherichia coli (E. coli) and Gram-positive Methicillin-resistant Staphylococcus aureus (MRSA). The minimum inhibitory concentration (MIC) is the lowest concentration of the antibiotic that inhibits microbial growths. MIC is determined by visual inspection or use of spectrophotometer plate reader to determine media turbidity. On the other hand, the minimum bactericidal concentration (MBC) is the lowest concentration that kills […] of bacterial growth. Cytotoxicity of peptides in the hepatic cell line, human skin fibroblast cell line, heart/myocardium cells, and human lung fibroblast cells is shown in FIGS. 36-46). […] (IFX-315)-Au-NP with antibiotics are shown in FIGS. 49-58 when the gold nanoparticles are formed by the peptide followed by addition of the antibiotic. […] (IFX-301) with antibiotics (1:1 ratio) first and then used in the synthesis of Au-NP in antibacterial activities is shown in FIGS. 59-68.
(§2) The MBC is identified by determining the lowest concentration of antibacterial agent that reduces the viability (concentration of peptides necessary to achieve a bactericidal effect) of the initial bacterial inoculum by ≥99.9%.

[6] = system: Escherichia coli (ATCC 25922); type: cell-based
Method: as §1, §2

[7] = system: Pseudomonas aeruginosa (ATCC 27883); type: cell-based; conditions: ATCC 27883
Method: as §1, §2

[8] = system: Pseudomonas aeruginosa (PSA, ATCC 27883); test: Synergy checkerboard assay (FIC index); type: cell-based; conditions: Pseudomonas aeruginosa (ATCC 27883), antibiotic alone
[9] = system: Methicillin-resistant Staphylococcus aureus MRSA (ATCC BAA-1556); test: microbe, parasite or virus in culture; conditions: ATCCBAA1556|MRSA, 24 h
[10] = system: Klebsiella pneumoniae (KPC, ATCC BAA-1705); conditions: Table 26; Klebsiella pneumoniae (ATCC BAA-1705); antibiotic alone
[11] = system: Pseudomonas aeruginosa (PSA, ATCC 27883); test: microbe, parasite or virus in culture; conditions: ATCC27883, 24 h
[12] = system: Escherichia coli (E. Coli, ATCC 25922); test: microbe, parasite or virus in culture; conditions: ATCC25922, 24 h
MRSA (ATCC BAA-1556) = conditions: MRSA (ATCC BAA-1556), antibiotic alone
[13] = system: Klebsiella pneumoniae (KPC, ATCC BAA-1705); test: microbe, parasite or virus in culture; conditions: ATCCBAA1705, 24 h
[14] = system: Escherichia coli (E. Coli, ATCC 25922); conditions: Table 25; Escherichia coli (ATCC 25922); antibiotic alone
[15] = system: Enterococcus faecium ATCC 27270; conditions: ATCC 27270

N=C(N)NCCC[C@H](NC(=O)[C@H](CCCNC(=N)N)NC(=O)[C@H](CCCNC(=N)N)NC(=O)[C@H](CCCNC(=N)N)NC(=O)[C@H](CS)NC(=O)[C@H](Cc1c[nH]c2ccccc12)NC(=O)[C@H](Cc1c[nH]c2ccccc12)NC(=O)[C@H](Cc1c[nH]c2ccccc12)NC(=O)[C@@H](N)Cc1c[nH]c2ccccc12)C(=O)N[C@@H](CS)C(=O)O [IFX-332] (H-WWWWCRRRRC-OH)
KPC (ATCC BAA-1705) MIC [1]: 512 µg/mL | E. coli (ATCC 25922) MIC [2]: 128 µg/mL | MRSA (ATCC BAA-1556) MIC [3]: 64 µg/mL | PSA (ATCC 27883 MIC) [4]: 256 µg/mL | MRSA (ATCC BAA-1556) MBC [5]: 128 µg/mL | E. coli (ATCC 25922) MBC [6]: 256 µg/mL

N=C(N)NCCC[C@@H]1NC(=O)[C@H](CCCNC(=N)N)NC(=O)[C@H](CCCNC(=N)N)NC(=O)[C@H](CCCNC(=N)N)NC(=O)[C@@H](NC(=O)[C@H](Cc2c[nH]c3ccccc23)NC(=O)[C@H](Cc2c[nH]c3ccccc23)NC(=O)[C@H](Cc2c[nH]c3ccccc23)NC(=O)[C@@H](N)Cc2c[nH]c3ccccc23)CSSC[C@@H](C(=O)O)NC1=O [IFX-334] (H-WWWWCRRRRC-OH; disulfide 5-10)
KPC (ATCC BAA-1705) MIC [1]: 256 µg/mL | E. coli (ATCC 25922) MIC [2]: 32 µg/mL | MRSA (ATCC BAA-1556) MIC [3]: 32 µg/mL | PSA (ATCC 27883 MIC) [4]: 256 µg/mL | MRSA (ATCC BAA-1556) MBC [5]: 64 µg/mL | E. coli (ATCC 25922) MBC [6]: 64 µg/mL | PSA (ATCC 27883) MBC [7]: 256 µg/mL

NC[C@H]1O[C@H](O[C@H]2[C@H](O)[C@@H](O[C@H]3O[C@H](CO)[C@@H](O)[C@H](N)[C@H]3O)[C@H](N)C[C@@H]2N)[C@H](N)C[C@@H]1O [Tobramycin]
MIC of antibiotic ([8]; Table 26): 0.5 µg/mL | antibiotic MIC ([8]; Table 27): 0.5 µg/mL | MIC ([9]; read-out: MRSA (ATCC BAA-1556) MIC, Table 30, [R5W4K] (IFX-315), antibiotics alone and PHY-MIX (1:1 w/w)): 0.5 µg/mL (≈ 1.07 µM) | MIC ([9]; read-out: MRSA (ATCC BAA-1556) MIC, Table 31, [R5W4] (IFX-301), antibiotics alone and PHY-MIX (1:1 w/w)): 0.5 µg/mL (≈ 1.07 µM) | MIC of antibiotics [10]: 16 µg/mL | MIC ([11]; read-out: Pseudomonas aeruginosa (ATCC 27883) MIC, Table 29, [R6W4] (IFX-318), antibiotics alone and PHY-MIX (1:1 w/w)): 0.5 µg/mL (≈ 1.07 µM) | MIC ([11]; read-out: Pseudomonas aeruginosa (ATCC 27883) MIC, Table 30, [R5W4K] (IFX-315), antibiotics alone and PHY-MIX (1:1 w/w)): 0.5 µg/mL (≈ 1.07 µM) | MIC ([11]; read-out: Pseudomonas aeruginosa (ATCC 27883) MIC, Table 31, [R5W4] (IFX-301), antibiotics alone and PHY-MIX (1:1 w/w)): 0.5 µg/mL (≈ 1.07 µM) | MIC ([12]; read-out: Escherichia coli (ATCC 25922) MIC, Table 30, [R5W4K] (IFX-315), antibiotics alone and PHY-MIX (1:1 w/w)): 8 µg/mL (≈ 17.1 µM) | MIC ([12]; read-out: Escherichia coli (ATCC 25922) MIC, Table 31, [R5W4] (IFX-301), antibiotics alone and PHY-MIX (1:1 w/w)): 8 µg/mL (≈ 17.1 µM) | MIC of antibiotic (MRSA (ATCC BAA-1556)): 0.5 µg/mL | MIC of antibiotic (MRSA (ATCC BAA-1556); Table 25): 0.5 µg/mL | MIC ([13]; read-out: Klebsiella pneumoniae (ATCC BAA-1705) MIC, Table 29, [R6W4] (IFX-318), antibiotics alone and PHY-MIX (1:1 w/w)): 16 µg/mL (≈ 34.2 µM) | MIC ([13]; read-out: Klebsiella pneumoniae (ATCC BAA-1705) MIC, Table 30, [R5W4K] (IFX-315), antibiotics alone and PHY-MIX (1:1 w/w)): 16 µg/mL (≈ 34.2 µM) | MIC ([13]; read-out: Klebsiella pneumoniae (ATCC BAA-1705) MIC, Table 31, [R5W4] (IFX-301), antibiotics alone and PHY-MIX (1:1 w/w)): 16 µg/mL (≈ 34.2 µM) | MIC of antibiotic [14]: 8 µg/mL

N=C(N)NCCC[C@@H]1NC(=O)[C@H](CCCNC(=N)N)NC(=O)[C@H](CCCNC(=N)N)NC(=O)[C@H](Cc2c[nH]c3ccccc23)NC(=O)[C@H](Cc2c[nH]c3ccccc23)NC(=O)[C@H](Cc2c[nH]c3ccccc23)NC(=O)[C@H](Cc2c[nH]c3ccccc23)NC(=O)[C@H](CCCNC(=N)N)NC(=O)[C@H](CCCNC(=N)N)NC1=O [[R5W4] (IFX-301)]
MIC Pseudomonas aeruginosa (ATCC 27883) (PSA): 32 µg/mL (≈ 21 µM) | MIC Escherichia coli (ATCC 25922) (E. coli): 16 µg/mL (≈ 10.5 µM) | MIC [15]: 8 µg/mL (≈ 5.24 µM) | MIC (MRSA): 4 µg/mL (≈ 2.62 µM) | MIC MRSA ATCC BAA-1556 (MRSA): 4 µg/mL (≈ 2.62 µM) | MIC Klebsiella pneumoniae (ATCC BAA-1705) (KPC): 32 µg/mL (≈ 21 µM)

N=C(N)NCCC[C@@H]1NC(=O)[C@H](CCCNC(=N)N)NC(=O)[C@H](CCCNC(=N)N)NC(=O)[C@H](CCCNC(=N)N)NC(=O)[C@H](Cc2c[nH]c3ccccc23)NC(=O)[C@H](Cc2c[nH]c3ccccc23)NC(=O)[C@H](Cc2c[nH]c3ccccc23)NC(=O)[C@H](Cc2c[nH]c3ccccc23)NC(=O)[C@H](CCCNC(=N)N)NC(=O)[C@H](CCCNC(=N)N)NC1=O [[R6W4] (IFX-318)] (cyclo(RRRRRRWWWW))
MIC Pseudomonas aeruginosa (ATCC 27883) (PSA): 16 µg/mL (≈ 9.51 µM) | MIC Escherichia coli (ATCC 25922) (E. coli): 32 µg/mL (≈ 19 µM) | MIC (MRSA): 8 µg/mL (≈ 4.76 µM) | MIC MRSA ATCC BAA-1556 (MRSA): 4 µg/mL (≈ 2.38 µM) | MIC Klebsiella pneumoniae (ATCC BAA-1705) (KPC): 64 µg/mL (≈ 38.1 µM)

N=C(N)NCCC[C@@H]1NC(=O)[C@H](CCCNC(=N)N)NC(=O)[C@H](CCCNC(=N)N)NC(=O)[C@H](CCCNC(=N)N)NC(=O)[C@H](Cc2c[nH]c3ccccc23)NC(=O)[C@H](Cc2c[nH]c3ccccc23)NC(=O)[C@H](Cc2c[nH]c3ccccc23)NC(=O)[C@H](Cc2c[nH]c3ccccc23)NC(=O)[C@H](CCCNC(=N)N)NC(=O)[C@H](CCCNC(=N)N)NC(=O)[C@H](CCCNC(=N)N)NC1=O [[R7W4] (IFX-322)] (cyclo(RRRRRRRWWWW))
MIC Pseudomonas aeruginosa (ATCC 27883) (PSA): 32 µg/mL (≈ 17.4 µM) | MIC Escherichia coli (ATCC 25922) (E. coli): 32 µg/mL (≈ 17.4 µM) | MIC MRSA ATCC BAA-1556 (MRSA): 16 µg/mL (≈ 8.7 µM) | MIC Klebsiella pneumoniae (ATCC BAA-1705) (KPC): 64 µg/mL (≈ 34.8 µM)

H-RRRRRWWWWK-OH [Linear R5W4K (SEQ ID NO. 36)]
MIC Pseudomonas aeruginosa (ATCC 27883) (PSA): 32 µg/mL | MIC Escherichia coli (ATCC 25922) (E. coli): 32 µg/mL | MIC MRSA ATCC BAA-1556 (MRSA): 8 µg/mL | MIC Klebsiella pneumoniae (ATCC BAA-1705) (KPC): 64 µg/mL
